The test concerns the target T1, S. aureus TrmD (Staphylococcus aureus, UniProt Q2FZ43).
T1 construct: made in house; host or cells: E. coli BL21
T1 sequence (Q2FZ43 1-245): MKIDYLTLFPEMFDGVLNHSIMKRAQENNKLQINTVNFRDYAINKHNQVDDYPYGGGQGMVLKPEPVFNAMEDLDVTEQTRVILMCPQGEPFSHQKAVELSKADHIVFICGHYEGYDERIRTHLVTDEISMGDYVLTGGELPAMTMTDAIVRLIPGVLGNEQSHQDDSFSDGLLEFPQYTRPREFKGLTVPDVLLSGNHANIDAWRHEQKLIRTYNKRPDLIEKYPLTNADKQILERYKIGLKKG
Kind of test: nanoSAR direct-to-biology FP displacement screening of crude triazoles. Type of test: binding. As to conditions: crude triazole at 1 μM, assuming full conversion; 500 nM TrmD, 10 nM tracer 4; read-out: % displaced tracer. The gist of the method:
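Crude CuAAC triazoles from alkyne 7 and 320 diverse azides were screened by FP displacement of 10 nM tracer 4 from 500 nM S. aureus TrmD. Buffer was 40 mM Tris HCl, 100 mM NaCl, 10 mM MgCl2, 5% glycerol, pH 7.5.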
For the compound `NC[C@H]1CCC[C@@H](Cn2cc(-c3c[nH]c4nc[nH]c(=O)c34)nn2)C1` [Compound 02A02, O=C1NC=NC=2NC=C(C=3N=NN(C3)C[C@H]4C[C@@H](C[NH3+])CCC4)C12], the inhibition at 1 µM amounted to 31%.

With `O=c1[nH]cnc2[nH]cc(-c3cn([C@H](CC4CCCCC4)c4ncccn4)nn3)c12` [Compound 02G07, O=C1NC=NC=2NC=C(C=3N=NN(C3)[C@@H](c4ncccn4)CC5CCCCC5)C12], the inhibition at 1 µM turned out to be 30%. With `O=c1[nH]cnc2[nH]cc(-c3cn(CCn4cccn4)nn3)c12` [Compound 01D09, O=C1NC=NC=2NC=C(C=3N=NN(C3)CCN4N=CC=C4)C12], the inhibition at 1 µM is 39%. In the case of `COCc1cccc(-n2cc(-c3c[nH]c4nc[nH]c(=O)c34)nn2)c1` [Compound 01C07, O=C1NC=NC=2NC=C(C=3N=NN(c4cc(ccc4)COC)C3)C12], the inhibition at 1 µM was 17%.

As for `N[C@]12CC[C@](n3cc(-c4c[nH]c5nc[nH]c(=O)c45)nn3)(CC1)C2` [Compound 02D10, O=C1NC=NC=2NC=C(C=3N=NN(C3)[C@]45C[C@]([NH3+])(CC4)CC5)C12], the inhibition at 1 µM is 11%. Under `O=c1[nH]cnc2[nH]cc(-c3cn(CCc4c[nH]c5ccccc45)nn3)c12` [Compound 02C02, O=C1NC=NC=2NC=C(C=3N=NN(C3)CCC=4c5c(NC4)cccc5)C12] stands 56%; under `O=c1[nH]cnc2[nH]cc(-c3cn(Cc4ncon4)nn3)c12` [Compound 01C09, O=C1NC=NC=2NC=C(C=3N=NN(C3)CC4=NOC=N4)C12], 31%; under `C[C@@H](C(=O)Nc1ccccc1)n1cc(-c2c[nH]c3nc[nH]c(=O)c23)nn1` [Compound 01F02, O=C1NC=NC=2NC=C(C=3N=NN(C3)[C@H](C(=O)Nc4ccccc4)C)C12], 28%. For `NCc1cccc(-n2cc(-c3c[nH]c4nc[nH]c(=O)c34)nn2)c1` [Compound 03G11, O=C1NC=NC=2NC=C(C=3N=NN(c4cc(ccc4)C[NH3+])C3)C12], the inhibition at 1 µM stood at 32%. Under `O=C1CCC[C@@H](Cn2cc(-c3c[nH]c4nc[nH]c(=O)c34)nn2)N1` [Compound 04D01, O=C1NC=NC=2NC=C(C=3N=NN(C3)C[C@H]4NC(=O)CCC4)C12] stands 75%. In the case of `CCO[C@@H]1CCCC[C@H]1n1cc(-c2c[nH]c3nc[nH]c(=O)c23)nn1` [Compound 03D09, O=C1NC=NC=2NC=C(C=3N=NN(C3)[C@H]4[C@H](OCC)CCCC4)C12], the inhibition at 1 µM worked out at 25%. In the case of `O=c1[nH]cnc2[nH]cc(-c3cn(CCOc4ccc(Cl)cc4)nn3)c12` [Compound 03H10, Clc1ccc(OCCN2N=NC(C=3C=4C(=O)NC=NC4NC3)=C2)cc1], the inhibition at 1 µM worked out at 85%. For the compound `O=c1[nH]cnc2[nH]cc(-c3cn(C[C@H](O)Cc4ccccc4)nn3)c12` [Compound 03D03, O=C1NC=NC=2NC=C(C=3N=NN(C3)C[C@H](O)Cc4ccccc4)C12], the inhibition at 1 µM came to 39%.

As for `CC(C)n1cc(-c2c[nH]c3nc[nH]c(=O)c23)nn1` [Compound 01A05, O=C1NC=NC=2NC=C(C=3N=NN(C3)C(C)C)C12], the inhibition at 1 µM worked out at 23%. With `COc1cccc(-n2cc(-c3c[nH]c4nc[nH]c(=O)c34)nn2)c1` [Compound 03G01, O=C1NC=NC=2NC=C(C=3N=NN(c4cc(OC)ccc4)C3)C12] the figure was 11%; with `O=c1[nH]cnc2[nH]cc(-c3cn(-c4ccc(C(F)(F)F)cc4)nn3)c12` [Compound 03B09, FC(F)(F)c1ccc(N2N=NC(C=3C=4C(=O)NC=NC4NC3)=C2)cc1], 15%. Under `O=c1[nH]cnc2[nH]cc(-c3cn(-c4ccc5nccnc5c4)nn3)c12` [Compound 02B02, O=C1NC=NC=2NC=C(C=3N=NN(c4cc5nccnc5cc4)C3)C12] stands 8.54%.

Take `CNC(=O)CCn1cc(-c2c[nH]c3nc[nH]c(=O)c23)nn1` [Compound 02H01, O=C1NC=NC=2NC=C(C=3N=NN(C3)CCC(=O)NC)C12]: the inhibition at 1 µM worked out at 21%. As for `O=c1[nH]cnc2[nH]cc(-c3cn(CCCN4CCC(C(F)(F)F)CC4)nn3)c12` [Compound 02D01, FC(F)(F)[C@@H]1CC[N@H+](CC1)CCCN2N=NC(C=3C=4C(=O)NC=NC4NC3)=C2], the inhibition at 1 µM was 23%. `O=c1[nH]cnc2[nH]cc(-c3cn(Cc4ccno4)nn3)c12` [Compound 04F02, O=C1NC=NC=2NC=C(C=3N=NN(C3)CC=4ON=CC4)C12]: the inhibition at 1 µM amounted to 92%.

For `Cn1cc(Cn2cc(-c3c[nH]c4nc[nH]c(=O)c34)nn2)cn1` [Compound 01F04, O=C1NC=NC=2NC=C(C=3N=NN(C3)CC=4C=NN(C4)C)C12], the inhibition at 1 µM came out at 57%. As to `O=c1[nH]cnc2[nH]cc(-c3cn(Cc4ccc(Cl)s4)nn3)c12` [Compound 04C02, ClC=1SC(=CC1)CN2N=NC(C=3C=4C(=O)NC=NC4NC3)=C2], the inhibition at 1 µM was found to be 92%. `COc1cccc(OC)c1Cn1cc(-c2c[nH]c3nc[nH]c(=O)c23)nn1` [Compound 02D12, O=C1NC=NC=2NC=C(C=3N=NN(C3)Cc4c(OC)cccc4OC)C12]: the inhibition at 1 µM was found to be 18%. On to `CCc1nc(Cn2cc(-c3c[nH]c4nc[nH]c(=O)c34)nn2)cs1` [Compound 01E03, S1C(=NC(=C1)CN2N=NC(C=3C=4C(=O)NC=NC4NC3)=C2)CC], for which the inhibition at 1 µM was 75%. Turning to `O=c1[nH]cnc2[nH]cc(-c3cn(CCn4cnc5ccccc54)nn3)c12` [Compound 03B04, O=C1NC=NC=2NC=C(C=3N=NN(C3)CCN4c5c(N=C4)cccc5)C12], the inhibition at 1 µM was found to be 71%. Consider `O=C1CC[C@@H](Cn2cc(-c3c[nH]c4nc[nH]c(=O)c34)nn2)O1` [Compound 04E02, O=C1O[C@H](CN2N=NC(C=3C=4C(=O)NC=NC4NC3)=C2)CC1], for which the inhibition at 1 µM was 22%. With `CCNC(=O)Cn1cc(-c2c[nH]c3nc[nH]c(=O)c23)nn1` [Compound 01E09, O=C1NC=NC=2NC=C(C=3N=NN(C3)CC(=O)NCC)C12] the figure was 33%; with `C[C@H](c1ccccc1F)n1cc(-c2c[nH]c3nc[nH]c(=O)c23)nn1` [Compound 01E02, Fc1c(cccc1)[C@H](N2N=NC(C=3C=4C(=O)NC=NC4NC3)=C2)C], 50%. As to `O=c1[nH]cnc2[nH]cc(-c3cn(CCCO)nn3)c12` [Compound 01G05, O=C1NC=NC=2NC=C(C=3N=NN(C3)CCCO)C12], the inhibition at 1 µM stood at 32%. As to `O=c1[nH]cnc2[nH]cc(-c3cn(C4CC4)nn3)c12` [Compound 01B05, O=C1NC=NC=2NC=C(C=3N=NN(C3)C4CC4)C12], the inhibition at 1 µM amounted to 12%. For `O=c1[nH]cnc2[nH]cc(-c3cn(C[C@H]4CCC[C@@]5(CCOC5)O4)nn3)c12` [Compound 01A06, O=C1NC=NC=2NC=C(C=3N=NN(C3)C[C@@H]4O[C@@]5(COCC5)CCC4)C12], the inhibition at 1 µM came to 52%. With `O=c1[nH]cnc2[nH]cc(-c3cn(Cc4ccncc4)nn3)c12` [Compound 04A04, O=C1NC=NC=2NC=C(C=3N=NN(C3)Cc4ccncc4)C12] the figure was 11%; with `COc1ccc(-n2cc(-c3c[nH]c4nc[nH]c(=O)c34)nn2)cc1` [Compound 02H08, O=C1NC=NC=2NC=C(C=3N=NN(c4ccc(OC)cc4)C3)C12], 9%; with `O=c1[nH]cnc2[nH]cc(-c3cn(CC(F)(F)c4ccccc4)nn3)c12` [Compound 02H05, FC(F)(c1ccccc1)CN2N=NC(C=3C=4C(=O)NC=NC4NC3)=C2], 46%.

On to `Cc1ccccc1-n1cc(-c2c[nH]c3nc[nH]c(=O)c23)nn1` [Compound 01D08, O=C1NC=NC=2NC=C(C=3N=NN(c4c(cccc4)C)C3)C12], for which the inhibition at 1 µM was 9%. Under `C[C@@H](Cn1cc(-c2c[nH]c3nc[nH]c(=O)c23)nn1)c1ccccn1` [Compound 03C10, O=C1NC=NC=2NC=C(C=3N=NN(C3)C[C@@H](c4ncccc4)C)C12] stands 63%; under `O=c1[nH]cnc2[nH]cc(-c3cn(C[C@H](O)Cc4cccc(F)c4)nn3)c12` [Compound 02H06, Fc1cc(ccc1)C[C@@H](O)CN2N=NC(C=3C=4C(=O)NC=NC4NC3)=C2], 27%. In the case of `C[C@H](c1csc2ccccc12)n1cc(-c2c[nH]c3nc[nH]c(=O)c23)nn1` [Compound 04H01, S1c2c(cccc2)C(=C1)[C@H](N3N=NC(C=4C=5C(=O)NC=NC5NC4)=C3)C], the inhibition at 1 µM was determined as 87%. With `COCCn1cc(-c2c[nH]c3nc[nH]c(=O)c23)nn1` [Compound 03C11, O=C1NC=NC=2NC=C(C=3N=NN(C3)CCOC)C12], the inhibition at 1 µM is 29%. On to `O=c1[nH]cnc2[nH]cc(-c3cn(-c4cc(Cl)cc(Cl)c4)nn3)c12` [Compound 03E08, Clc1cc(Cl)cc(N2N=NC(C=3C=4C(=O)NC=NC4NC3)=C2)c1], for which the inhibition at 1 µM amounted to 23%. With `CC(C)(C)OC(=O)N1CCC[C@H](CCn2cc(-c3c[nH]c4nc[nH]c(=O)c34)nn2)CC1` [Compound 03F11, O=C(OC(C)(C)C)N1CC[C@@H](CCN2N=NC(C=3C=4C(=O)NC=NC4NC3)=C2)CCC1] the figure was 71%; with `CC(C)(C)OCCCn1cc(-c2c[nH]c3nc[nH]c(=O)c23)nn1` [Compound 03C07, O=C1NC=NC=2NC=C(C=3N=NN(C3)CCCOC(C)(C)C)C12], 42%. Consider `O=c1[nH]cnc2[nH]cc(-c3cn(C4(C(F)F)CC4)nn3)c12` [Compound 02A12, FC(F)C1(N2N=NC(C=3C=4C(=O)NC=NC4NC3)=C2)CC1], for which the inhibition at 1 µM was found to be 18%. Take `O=c1[nH]cnc2[nH]cc(-c3cn(CC4CCCCC4)nn3)c12` [Compound 01B10, O=C1NC=NC=2NC=C(C=3N=NN(C3)CC4CCCCC4)C12]: the inhibition at 1 µM was 33%.

(Values after article PMC12751012, “Nanoscale Direct-to-Biology Optimization and Structural Insights into Selective S. aureus TrmD Inhibitors” (Journal of Medicinal Chemistry, 2025).)
